Measured values taken from patent US12661353B2, “SPT5 inhibitors and uses thereof” (Yeda Research and Development Co. Ltd., priority 2020, dated 2026).

Tests used:
mutant (Q111) Htt = assay: Newly synthesized Htt transcripts, 4sU metabolic labeling, Q111 cells; format: cell-based, mouse; conditions: 4sU for 2 hours
Description: (§1) Metabolic labeling of newly synthesized RNA with 4-thiouridine (4sU)—STHdh Q111 and STHdh Q7 cells (collected from 10 cm dishes) were treated for 30 minutes with DMSO (vehicle control) or the tested SPI compound (e.g., SPJ-21). Following, 4-thiouridine (4sU, 150 μM final concentration) was added for additional 2 hours. The labeling was terminated by removing the 4sU-containing medium and washing the cells 3 times with phosphate-buffered saline (PBS). Total RNA was extracted as described above. […]
(§2) Huntington's disease (HD) is an inherited genetic disorder caused by expansion trinucleotide CAG repeats (36 and higher) encoding glutamine (Q) in the huntingtin (Htt) gene. […] The two cell lines were treated for 48 hours with the identified SPIs and following the levels of Htt mRNA were determined. […] Moreover, the levels measured from the second exon relative to the first were fairly higher in Q7 compared to Q111 and this small difference was kept all along the gene. […]
In assays conducted for showing that the selective effect on mutant Htt is at the transcription level, the cells were metabolically labeled with 4-thio-uridine (4sU) for 2 hours in the presence of DMSO of the indicated SPI analogs. […] Newly synthesized Htt transcript levels were determined by RT-qPCR.

His-eIF4E = target: T1, His-eIF4E (Homo sapiens, UniProt P06730); assay: Binding assay by intrinsic fluorescence of His-eIF4E (negative control); conditions: negative control protein
T1 construct: His tag; made in house; host or cells: E. coli; purified by nickel agarose beads
T1 sequence (P06730 whole entry): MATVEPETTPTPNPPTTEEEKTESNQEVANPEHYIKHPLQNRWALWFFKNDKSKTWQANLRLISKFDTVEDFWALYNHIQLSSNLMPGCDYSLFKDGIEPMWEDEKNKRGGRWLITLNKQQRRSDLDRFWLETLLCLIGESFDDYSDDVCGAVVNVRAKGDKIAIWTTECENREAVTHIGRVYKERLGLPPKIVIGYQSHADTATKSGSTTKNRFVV
Description: Binding assay—In order to measure binding of the indicated compound to Spt5 and/or Pol II; Spt5-Spt4 or Rpb1 fused to a histidine (His) tag were expressed in E. coli (SEQ ID Nos: 2-3, 5-6 and 81) and purified on nickel agarose beads as described in Ashkenazi et al. 2016. The proteins were incubated for 10 minutes with increasing concentrations of the indicated compound in a black 384 wells microplate in a total volume of 20 μl. Binding was assessed by measuring the changes in the intrinsic fluorescence (280 nm) using Cytation™ 5 (BioTek).
Direct interaction with either the Spt5 or the Rpb1 CC domain of SPI-21 and SPI-18 was further validated. His-Rpb1 and His-Spt5 (fused to Spt4 to increase its stability) and His-eIF4E, used as a negative control, were each expressed in E. coli and purified by nickel agarose beads. Using the purified proteins, fluorescence intensity measurements were performed in the presence of increasing concentrations of SPI-21 and SPI-18. This method analyzes binding by monitoring the changes in the intrinsic fluorescence of the proteins as a consequence of conformational changes. Spt5, Rpb1, and eIF4E display significant intrinsic fluorescence, as expected from the presence of aromatic residues in all of them. […] These findings are consistent with the direct interaction of the identified SPI compounds with the Spt5 and Rpb1 proteins.

wild type (Q7) Htt = assay: Newly synthesized Htt transcripts, 4sU metabolic labeling, Q7 cells; format: cell-based, mouse; conditions: 4sU for 2 hours
Description: as §1, with “above. 10 μg of RNA were biotinylated using biotin-HPDP (1:5; A8008, APExBIO) for 1.5 hours at room temperature and the biotinylated RNA was purified using chloroform and isopropanol extraction and dissolved in DEPC water. Following, the biotinylated RNA was captured by incubation with Streptavidin-coated magnetic beads (NEB, S1420S) for 30 minutes at room temperature in constant rotation. Bound RNA was eluted with 100 μl of 0.1 M fresh DTT.” for “above.”
as §2

## COc1ccc(C=CC(=O)c2cc(O)ccc2O)cc1 [SPI-21]
Mutant (Q111) Htt
  levels of newly synthesized Q111 Htt: diminished
His-eIF4E
  effect on intrinsic fluorescence of eIF4E: no significant effect
Wild type (Q7) Htt
  levels of newly synthesized Q7 Htt: not Q7 Htt were diminished
